Tests used:
filaggrin = experiment: Filaggrin expression by indirect immunofluorescence on skin biopsies; type: cell-based, human; conditions: positive control, concentration not given
Protocol: Filaggrin is a protein involved in the cohesion and maintenance of the hydration of the upper layer of the epidermis, which is essential for maintaining the homeostasis of the skin barrier.
Filaggrin expression was assessed by indirect immunofluorescence on skin biopsies, pre-treated by topical application of the solubilised extract of depleted sandalwood from Example 1, diluted in 0.1% octyldodecanol (volume/volume percentages, twice daily), for 48 hours. In parallel, biopsies were treated with a sandalwood essential oil of Example 3 from the same geographical site and tested under the same conditions. Control biopsies incubated in parallel under the same conditions were given the placebo (octyldodecanol). After incubation, the biopsies were fixed and embedded in paraffin for histological sections. Detection of filaggrin was performed by incubation with anti-filaggrin antibody (Santa Cruz). After one and a half hours of incubation followed by rinses, the sections were incubated in the presence of the anti-mouse secondary antibody coupled to a fluorophore (Alexa Fluor® 488, Invitrogen). The sections were then examined under an Epi-fluorescence microscope (Zeiss Axiovert 200M microscope). Filaggrin expression was then observed and quantified by image analysis (Volocity® image analysis software, Improvision).

[1] = test system: olfactory receptor OR2AT4; experiment: OR2AT4 expression by indirect immunofluorescence on human skin biopsies; type: cell-based
Protocol: OR2AT4 expression was assessed by indirect immunofluorescence on skin biopsies, pre-treated by topical application of the solubilised extract of depleted sandalwood of Example 1 at 0.1%, 0.5% and 1% (volume/volume percentages), for 48 hours (twice daily). For this purpose, the solubilised extract of depleted sandalwood from Example 1 was diluted in 0.1%, 0.5% and 1% (volume/volume percentages) octyldodecanol. Other biopsies were given similar dilutions of sandalwood essential oil from Example 3 or a synthetic analogue Sandalore. Control biopsies incubated in parallel under the same conditions received placebo (octyldodecanol). After incubation, the biopsies were fixed and embedded in paraffin for histological sections. Detection of the OR2AT4 receptor was performed by incubation with anti-OR2AT4 antibody (Novus). After one and a half hours of incubation followed by rinses, the sections are incubated in the presence of the anti-rabbit secondary antibody coupled to a fluorophore (Alexa Fluor® 488, Invitrogen). The sections were then examined under an Epi-fluorescence microscope (Zeiss Axiovert 200M microscope). OR2AT4 expression was then observed and quantified by image analysis (Volocity® image analysis software, Improvision).

Row | Structure (SMILES) | increase in filaggrin (filaggrin) | OR2AT4 expression increase ([1]; 1% (v/v) in octyldodecanol, topical, twice daily, 48 hours, vs placebo) [%] | OR2AT4 expression increase ([1]; 3% topical application) [%] | OR2AT4 expression increase ([1]; 5% topical application) [%] | effect on OR2AT4 expression ([1]; application of less than 1%)
1 | O=C(O[C@@H]1Cc2c(O)cc(O)cc2O[C@@H]1c1cc(O)c(O)c(O)c1)c1cc(O)c(O)c(O)c1 [EGCG, epigallocatechin gallate] | +27% | – | – | – | –
2 | CC1=CCC(CCC(C)C(C)O)C1(C)C (centres unmarked) [Sandalore] | – | 28 | 72 | 71 | does not seem to have any effect

From patent US20230165785A1, “METHOD FOR OBTAINING AN EXTRACT OF SANDALWOOD, COMPOSITIONS COMPRISING SAME AND COSMETIC USES THEREOF” (ISP INVESTMENTS LLC, priority 2020, published 2023)
